Data set [1] is described as follows: Foam stability of polidocanol with single molecular weight (Tessari method). The format is physicochemical. The conditions noted are these: for Foam coalescence time / Foam drainage time: 1% solution in 4% solution of ethanol in PBS, Tessari method, gas-to-liquid ratio 3:1; for foam formed after thorough mixing with air: 1% solutions mixed with air at a volume ratio of 1:3. On the procedure:
Samples of polidocanol with a single molecular weight (DD-PEG8-OH, DD-PEG9-OH, and DD-PEG10-OH prepared in Example 1) and a control (polidocanol in a mixture state containing different molecular weights, purchased from Siegfried Hameln GmbH, Germany, batch number OK13103) were separately weighed and prepared into 1% solutions using a 4% solution of ethanol in PBS. The polidocanol was foamed using the Tessari method, i.e., two 2.5 mL syringes were connected via a three-way tube and rapidly pushed and pulled back and forth at a gas-to-liquid ratio of 3:1 until foam formed. All foam was collected into one syringe, the volume was brought to 2 mL, and the foam state was observed while standing. The following parameters were recorded: foam drainage time, foam halflife time, and foam coalescence time.

The next data set relates to rabbit marginal ear vein. Description: Venous sclerosing effect in the rabbit marginal ear vein model. Type of data set: in vivo. As to conditions: maximum volume 0.25 mL, calculated on number of rabbit ears. On the procedure:
The rabbit marginal ear vein was used as an experimental model to compare the effects of adding different concentrations of sodium hyaluronate on the venous sclerosing effect of polidocanol. The specific method was as follows: (1) Domestic rabbits were anesthetized with xylazine (2-5 mg/kg, intramuscular injection). Subsequently, the hair on the ears was shaved, and the area was disinfected using a 0.5% chlorhexidine alcohol solution. (2) The Tessari method was used to foam the polidocanol with the addition of sodium hyaluronate, i.e., two 10 mL syringes were connected via a three-way tube and rapidly pushed and pulled back and forth at a certain gas-to-liquid ratio until foam was formed. (3) A disposable syringe was used to puncture the marginal vein, and the sclerosant was injected slowly, with a maximum volume of 0.25 mL. […]
In this example, 14 days after the injection of different types of polidocanol into some rabbit marginal ear veins, some blood vessels were occluded. […] All rabbit ear blood vessels were scored, with effective ones recorded as 1 and ineffective ones recorded as 0.
The calculation rule for the effective rate was as follows: effective rate = score of rabbit ears/total number of rabbit ears × 100% (calculated based on the number of rabbit ears).
All rabbit ear blood vessels were scored, with effective ones recorded as 1 and ineffective ones recorded as 0. […]

Each structure is given as a SMILES string.

Consider `CCCCCCCCCCCCOCCOCCOCCOCCOCCOCCOCCOCCO` [P8], for which, in data set [1], the Foam coalescence time is listed as 13 min, the Foam drainage time was 3 s and the “foam formed after thorough mixing with air” value was “formed homogeneous foam”. Besides, the Foam coalescence time in data set [1] (listed as P8 (1%)) is 13 m.
Consider `CCCCCCCCCCCCOCCOCCOCCOCCOCCOCCOCCOCCOCCO` [P9], for which the “D14 effective rate (%)” value in the data set with rabbit marginal ear vein (venous sclerosis 14 days after injection of foam into rabbit marginal ear veins) is 91.67%. Besides, the “D21 effective rate (%)” value in the data set with rabbit marginal ear vein (venous sclerosis 21 days after injection of foam into rabbit marginal ear veins) is 83.33%.
`CCCCCCCCCCCCOCCOCCOCCOCCOCCOCCOCCOCCOCCOCCO` [P10]: in data set [1], the Foam coalescence time is listed as 20 min, the Foam drainage time was found to be 8 s and the “foam formed after thorough mixing with air” value is given as “formed homogeneous foam”. For the same compound, the Foam coalescence time in data set [1] (listed as P10 (1%)) came out at 20 m.

The record behind these values is patent EP4732841A1, “FOAM SCLEROSANT COMPOSITION, AND PREPARATION METHOD THEREFOR AND USE THEREOF” (Jenkem Technology Co., Ltd. (Beijing), priority 2023, dated 2025).
